Test results as given in US8841292B2, “Induced hypothermia” (Weil Institute of Critical Care Medicine, priority 2011, dated 2014).

Experiments:
[1] = tested on: cannabinoid receptors; settings: versus other neurotransmitter and ion channels; cited from earlier work
[2] = tested on: rat model of cardiac arrest and resuscitation; test: Rat model of cardiac arrest and resuscitation; type: in vivo
Method: The effects of WIN 55, 212-2 were investigated initially in our rat model of cardiac arrest and resuscitation. […] Ventricular fibrillation was induced and untreated for 6 mins and followed by 8 mins of CPR. Resuscitation was then attempted with defibrillation. WIN 55, 212-2 was infused intravenously 10 mins after resuscitation in a dose of 1 mg/kg/hour and continued for 6 hours. The body temperature decreased from 37 to 34° C. within 4 hours after infusion (FIG. 1).

[3] = tested on: porcine model of CPR; test: Proposed porcine model study of cardiac arrest and resuscitation; type: in vivo, Sus scrofa; settings: hypothesis
Description: A porcine model of cardiac arrest and resuscitation in domestic pigs, weighing between 40±2 kg, is utilized for a proposed study that applicant is conducting. The porcine model is selected because (1) it has a large body mass and the timing of reduction in body temperature during hypothermia is close to that of the human. […] (3) A large animal model facilitates non-invasive measurements of myocardial function by echocardiographic methods, preserving an intact chest wall for conventional CPR, and specifically, precordial compression. (4) Our research team has had extensive experience for more than 20 years with the porcine model, under conditions of cardiac arrest and resuscitation.
Our aims are to investigate the effects of WIN55, 212-2, the cannabinoid CB1/CB2 receptor agonist, when administered immediately following resuscitation with or without physical surface body cooling on blood temperature, post resuscitation myocardial and cerebral functions, and duration of survival in our porcine model of CPR. We hypothesize that when WIN55, 212-2 is administered immediately following resuscitation, it will rapidly achieve the target blood temperature (34° C., <3 hours), therefore improving post-resuscitation myocardial and cerebral functions, and duration of survival. We further hypothesize that when WIN55, 212-2 is administered in combination with physical surface body cooling, the combination will further reduce the duration for achieving target blood temperature (<1 hour). It will therefore further improve post-resuscitation myocardial and cerebral functions, and duration of survival.
To test our hypotheses, the independent variables are the WIN55, 212-2 and WIN55, 212-2 with physical surface cooling. […]
In experiments, male domestic pigs, weighing 40±2 kg, are fasted overnight except for free access to water. […] End-tidal PC02 is monitored with an infrared analyzer (Model 01R-7101A, Nihon Kohden Corp, Tokyo, Japan). […]

[4] = tested on: normal rats; settings: cited from earlier work

Compound	selectivity for cannabinoid receptors [1]	time after infusion for body temperature decrease to 34 ° C. ([2]; 1 mg/kg/hour i.v. infusion for 6 hours) [h]	body temperature decreased to ([2]; 1 mg/kg/hour i.v. infusion from 10 mins after resuscitation for 6 hours, from 37 ° C.) [°C]	survival ([2]; all animals that received the drug)	neurological deficits ([2]; survivors)	post resuscitation myocardial function (ejection fraction, FIG. 2) ([2]; versus controls)	time to achieve target blood temperature (34° C.) ([3]; administered immediately following resuscitation, drug alone) [h]	time to achieve target blood temperature ([3]; in combination with physical surface body cooling) [h]	body temperature reduced to ([4]; intramuscular injection, from 37 ° C.) [°C]	duration hypothermia was maintained ([4]; intramuscular injection)	hypothermia, dose dependence ([4]; intramuscular injection)	hypothermia effect with selective CB1 antagonist ([4]; selective CB1 antagonist given)	blockade of the effects of WIN55, 212-2 ([3]; pre-treatment with selective CB1 antagonist)
Cc1c(C(=O)c2cccc3ccccc23)c2cccc3c2n1[C@H](CN1CCOCC1)CO3 [WIN 55, 212-2]	highly selective	≤ 4	34	more than 72 hours	minimal neurological deficits	significantly better than the controls	< 3	< 1	34	up to 5 hours	produced hypothermia in a dose-dependent manner	completely blocked	–
Cc1c(C(=O)NN2CCCCC2)nn(-c2ccc(Cl)cc2Cl)c1-c1ccc(Cl)cc1 [SR141716A]	–	–	–	–	–	–	–	–	–	–	–	–	completely blocked
